Patent publication US20240109842A1, “ACRYLAMIDE COMPOUNDS” (OTSUKA PHARMACEUTICAL CO., LTD., priority 2019, published 2024)
Like-named read-outs stand apart in the source and are kept apart here.

Test system: immortalized megakaryocyte cell line
Experiment: Test Example 1: platelet production, shake culturing
Assay type: cell-based
Conditions: for fold induction at 10 µM: Platelet, 144 h, read-out: Amount of platelet production (vs. Control); for Amount of platelet production (vs. Control): aryl hydrocarbon receptor antagonist Compound A5 0.1 μM added at cell seeding, counted after 6 days
Procedure: The immortalized megakaryocyte cell line obtained according to the method described in WO 2016/204256 was washed twice with D-PBS(−) and then cultured in medium not containing doxycycline to terminate forced expression (cultured under conditions where gene expression is OFF). Shake culturing at 100 rpm was performed in the following medium after the cells were seeded in a 125-mL polycarbonate Erlenmeyer flask (Corning #431143) at 25 mL/flask and a seeding density of 1×10^5 cells/mL. Culturing conditions were 37° C. and 5% CO2. The medium was obtained by adding the following components to IMDM serving as the basal medium (concentrations indicate final concentrations). • FBS 15% • L-Glutamine 2 mM • ITS 100-fold dilution • MTG 450 μM • Ascorbic acid 50 μg/mL • SCF 50 ng/mL • TA-316 0.1 μg/mL • ADAM inhibitor 15 μM • ROCK inhibitor 0.5 μM […] After culturing for 6 days in total, the number of platelets was measured. The measurement method was as follows. The same operation was performed for control. At 6 days after initiation of the culturing under conditions where gene expression was OFF, a part of the culture supernatant was collected, and suspended with the following antibody and Flow-Count Fluorospheres (Beckman Coulter #7547053) to perform staining. • APC-labeled anti-CD41 antibody (BioLegend #303710) • eFluor 450-labeled anti-CD42a antibody (eBioscience #48-0428-42) • PE-labeled anti-CD42b antibody (BioLegend #303906) At 30 minutes after staining, number of platelets (CD41, CD42a and CD42b-positive cells) was counted by using FACSVerse (manufactured by BD Japan) with Flow-Count Fluorospheres. The number of platelets was given as a percentage of the control.

[1] = DMSO added at cell seeding (no AhR antagonist), compound 10 μM added at Day 3, platelets (CD41, CD42a, CD42b-positive) counted after 6 days

SMILES | fold induction at 10 µM | Amount of platelet production (vs. Control) (compound 10 μM added at Day 3) | fold induction at 10 µM [1]
COc1cccc2c(/C=C/C(=O)NCCc3ccccc3-c3ccccc3)c[nH]c12 [Example 2] | 1.5 to 6.5 | ++ (not less than 6.5 times) | 
CCSc1ccccc1CCNC(=O)/C=C/c1c[nH]c2c(OC)cccc12 [Example 3] |  | ++ (not less than 6.5 times) | 1.5 to 6.5
COc1cccc2c(/C=C/C(=O)NCCc3ccccc3CSC)c[nH]c12 [Example 4] | 1.5 to 6.5 | ++ (not less than 6.5 times) | 
CCNc1ccccc1CCNC(=O)/C=C/c1c[nH]c2c(OC)cccc12 [Example 5] |  | ++ (not less than 6.5 times) | 1.5 to 6.5
COc1cccc2c(/C=C/C(=O)NCCc3ccccc3OCC3CC3)c[nH]c12 [Example 6] | 1.5 to 6.5 | ++ (not less than 6.5 times) | 
COc1cccc2c(/C=C/C(=O)NCCc3ccccc3-c3ccccn3)c[nH]c12 [Example 7] |  | ++ (not less than 6.5 times) | 1.5 to 6.5
COC(=O)c1ccccc1CCNC(=O)/C=C/c1c[nH]c2c(OC)cccc12 [Example 8] |  | ++ (not less than 6.5 times) | 1.5 to 6.5
CCSc1ccccc1CCNC(=O)/C=C/c1cn(C(C)=O)c2c(OC)cccc12 [Example 9] |  | ++ (not less than 6.5 times) | 1.5 to 6.5
COc1cccc2c(/C=C/C(=O)N(C)CCc3ccccc3OCC3CC3)cn(C)c12 [Example 10, (E)-N-[2-[2-(cyclopropylmethoxy)phenyl]ethyl]-3-(7-methoxy-1-methylindol-3-yl)-N-methylprop-2-enamide] |  | ++ (not less than 6.5 times) | 1.5 to 6.5
CCOc1ccsc1CCNC(=O)/C=C/c1c[nH]c2c(OC)cccc12 [Example 11] |  | ++ (not less than 6.5 times) | 1.5 to 6.5
COc1cccc2c(/C=C/C(=O)NCCc3cc(F)ccc3-c3ccccc3)c[nH]c12 [Example 12] |  | ++ (not less than 6.5 times) | 1.5 to 6.5
COc1ccc(-c2ccccc2)c(CCNC(=O)/C=C/c2c[nH]c3c(OC)cccc23)c1 [Example 13] |  | ++ (not less than 6.5 times) | 1.5 to 6.5
COc1cccc2c(/C=C/C(=O)NCCc3ccccc3-c3nccs3)c[nH]c12 [Example 14] | 1.5 to 6.5 | ++ (not less than 6.5 times) | 
COc1cccc2c(/C=C/C(=O)NCCc3ccccc3-c3ncco3)c[nH]c12 [Example 15] | > 6.5 | ++ (not less than 6.5 times) | 
COc1cccc2c(/C=C/C(=O)NCCc3ccccc3-c3ncccn3)c[nH]c12 [Example 17, (E)-3-(7-methoxy-1H-indol-3-yl)-N-[2-(2-pyrimidin-2-ylphenyl)ethyl]prop-2-enamide] |  | ++ (not less than 6.5 times) | 1.5 to 6.5
COc1cccc2c(/C=C/C(=O)NCCc3ccccc3-c3cccs3)c[nH]c12 [Example 19, (E)-3-(7-methoxy-1H-indol-3-yl)-N-[2-(2-thiophene-2-ylphenyl)ethyl]prop-2-enamide] |  | ++ (not less than 6.5 times) | 1.5 to 6.5
COc1cccc2c(/C=C/C(=O)NCCc3ccccc3-c3ccsc3)c[nH]c12 [Example 20] | 1.5 to 6.5 | ++ (not less than 6.5 times) | 
COc1cccc2c(/C=C/C(=O)NCCc3sccc3-c3ccccc3)c[nH]c12 [Example 21] | 1.5 to 6.5 | ++ (not less than 6.5 times) | 
COc1cccc2c(/C=C/C(=O)NCCc3ccsc3-c3ccccc3)c[nH]c12 [Example 22] | 1.5 to 6.5 | ++ (not less than 6.5 times) | 
COc1cccc2c(/C=C/C(=O)NCCc3ccccc3-c3ccccc3)cn(C)c12 [Example 23] | 1.5 to 6.5 | ++ (not less than 6.5 times) | 
COc1cccc2c(/C=C/C(=O)NCCc3ccccc3-c3ccccc3)cn(C(C)=O)c12 [Example 24, (E)-3-(1-acetyl-7-methoxyindol-3-yl)-N-[2-(2-phenylphenyl)ethyl]prop-2-enamide] |  | ++ (not less than 6.5 times) | 1.5 to 6.5

SMILES | fold induction at 10 µM | Amount of platelet production (vs. Control) (compound 10 μM added at Day 3) | fold induction at 10 µM [1]
COc1cccc2c(/C=C/C(=O)NCCc3ccccc3-c3ccccc3)cn(C(=O)c3ccccc3)c12 [Example 25, (E)-3-(1-benzoyl-7-methoxyindol-3-yl)-N-[2-(2-phenylphenyl)ethyl]prop-2-enamide] |  | ++ (not less than 6.5 times) | 1.5 to 6.5
COc1cccc2c(/C=C/C(=O)NCCc3ccccc3-c3ccco3)c[nH]c12 [Example 26] |  | ++ (not less than 6.5 times) | 1.5 to 6.5
COc1cccc2c(/C=C/C(=O)NCCc3ccccc3-c3ccccc3F)c[nH]c12 [Example 27] |  | ++ (not less than 6.5 times) | 1.5 to 6.5
COc1cccc2c(/C=C/C(=O)NCCc3ccccc3-c3ccc(F)cc3)c[nH]c12 [Example 28] |  | ++ (not less than 6.5 times) | 1.5 to 6.5
CCOc1ncccc1CCNC(=O)/C=C/c1c[nH]c2c(OC)cccc12 [Example 29, (E)-N-[2-(2-ethoxypyridine-3-yl)ethyl]-3-(7-methoxy-1H-indol-3-yl)prop-2-enamide] |  | ++ (not less than 6.5 times) | 1.5 to 6.5
COc1cccc2c(/C=C/C(=O)NCCc3sccc3-c3cccs3)c[nH]c12 [Example 30] |  | ++ (not less than 6.5 times) | 1.5 to 6.5
COc1cccc2c(/C=C/C(=O)NCCc3sccc3-c3ccco3)c[nH]c12 [Example 31] |  | ++ (not less than 6.5 times) | 1.5 to 6.5
COc1cccc2c(/C=C/C(=O)NCCc3sccc3-c3ccccn3)c[nH]c12 [Example 32] |  | ++ (not less than 6.5 times) | 1.5 to 6.5
COc1cccc2c(/C=C/C(=O)NCCc3ccccc3-c3cccnn3)c[nH]c12 [Example 33] |  | ++ (not less than 6.5 times) | 1.5 to 6.5
COc1cccc2c(/C=C/C(=O)NCCc3ccccc3-c3ccncn3)c[nH]c12 [Example 34] |  | ++ (not less than 6.5 times) | 1.5 to 6.5
COCCOc1ccccc1CCNC(=O)/C=C/c1c[nH]c2c(OC)cccc12 [Example 35] |  | ++ (not less than 6.5 times) | 1.5 to 6.5
CCOc1ccccc1CCNC(=O)/C=C/c1c[nH]c2c(OC)nccc12 [Example 36] |  | ++ (not less than 6.5 times) | 1.5 to 6.5
COc1cccc2c(/C=C/C(=O)NCCc3ccccc3-n3cccn3)c[nH]c12 [Example 37] |  | ++ (not less than 6.5 times) | 1.5 to 6.5
CCOc1ccccc1CCNC(=O)/C=C/n1cnc2c(OC)cccc21 [Example 38] |  | + (the amount of platelets production increased by not less than 1.5 times and less than 6.5 times) | 1.5 to 6.5
COc1cccc2c1ccn2/C=C/C(=O)NCCc1ccccc1-c1ncccn1 [Example 39] |  | ++ (not less than 6.5 times) | 1.5 to 6.5
COc1cccn2c(/C=C/C(=O)NCCc3ccccc3-c3ncccn3)cnc12 [Example 40] |  | ++ (not less than 6.5 times) | 1.5 to 6.5
Cc1ccnc2c(/C=C/C(=O)NCCc3ccccc3-c3ncccn3)c[nH]c12 [Example 41] |  | ++ (not less than 6.5 times) | 1.5 to 6.5
COc1cccc2c(/C=C/C(=O)NCCc3cccc4ccc(C)nc34)c[nH]c12 [Example 42] |  | ++ (not less than 6.5 times) | 1.5 to 6.5
COC(=O)n1cc(/C=C/C(=O)NCCc2ccccc2-c2ccccc2)c2cccc(OC)c21 [Example 43] |  | ++ (not less than 6.5 times) | 1.5 to 6.5
COc1cccc2c(/C=C/C(=O)NCCc3occc3-c3ccccc3)c[nH]c12 [Example 44] |  | ++ (not less than 6.5 times) | 1.5 to 6.5
